Assay results from patent US20260159486A1, “BENZO[H]QUINAZOLINE-4-AMINE DERIVATIVES FOR THE TREATMENT OF CANCER” (Redona Therapeutics, Inc., priority 2021, published 2026).

Legend:
[1] = tested on: CAL-51 cells; assay: CAL-51 proliferation assay; format: cell-based; conditions: YO-PRO-1 Iodide readout
Excerpt: (§1) MDA-MB-231 and CAL-51 Proliferation Assay
(§2) Cells (MDA-MB-231 (American Type Culture Collection (ATCC), #HTB-26) or CAL-51 (Deutsche Sammlung von Mikroorganismen und Zellkulturen (DSMZ), #ACC302) as applicable) were cultivated in DMEM High Glucose (4.5 g/L) with L-Glutamine (BioConcept, cat. no. 1-26F03-I) supplemented with 1% Na-pyruvate (Sigma, cat. no. S8636), 1% Penicillin-Streptomycin (BioConcept, cat. no. 4-01F00H), and 10% FBS (Sigma, cat. no. F9665) using standard techniques. Cells were seeded in black, clear-bottom 384 well plates for tissue culture (Greiner Bio-One, cat. no. 781091) at a density of 750 cells per well in 20 μL medium and the plates were incubated overnight at 37° C. with 5% CO2 prior to treatment. Experimental compounds were serially diluted in DMSO to 200× the desired final concentrations. The solutions were then diluted 1:40 with culture medium and 5 μL aliquots were mixed into the wells containing the cells. The final concentration of DMSO was 0.5%. The plates were incubated for 72 hours and cell numbers were then measured using YO-PRO™-1 Iodide (ThermoFisher Scientific, cat. no. Y3603) essentially as recommended by the manufacturer. Briefly, a 12.5 μM solution of YO-PRO™_1 Iodide in 5× YO—PRO buffer (100 mM Na-citrate, 130 mM NaCl, pH 4) was combined with an equal volume of lysis buffer (0.6% NP-40, 30 mM EDTA, 30 mM EGTA, 0.33× YO—PRO buffer) and 12.5 μL of the mixture were dispensed into each well. The plates were incubated at room temperature in the dark for 30 minutes. Fluorescence intensity signals were then measured on a Synergy 4 reader (BioTek) using 485/20 nm and 530/25 nm filters for the excitation and emission, respectively. Relative proliferation values were calculated by normalizing the raw data using DMSO-treated cells (100% proliferation) and the signals obtained from cells that were evaluated at the time of compound addition (0% proliferation). The concentration-response data were fitted to a sigmoidal 4-parameter logistic model with the maximum constrained to 100%. GI50 values were calculated from the curves as the compound concentrations reducing proliferation to 50%.

[2] = molecular target: T1, recombinant human CLK3 (Homo sapiens, UniProt P49761); assay: CLK3 kinase assay (LANCE Ultra); format: biochemical; conditions: CLK3 0.5 nM, ATP 300 μM, 3 hours at 30° C.
T1 construct: purchased Thermo Fisher Scientific PV3826
T1 sequence (P49761 whole entry): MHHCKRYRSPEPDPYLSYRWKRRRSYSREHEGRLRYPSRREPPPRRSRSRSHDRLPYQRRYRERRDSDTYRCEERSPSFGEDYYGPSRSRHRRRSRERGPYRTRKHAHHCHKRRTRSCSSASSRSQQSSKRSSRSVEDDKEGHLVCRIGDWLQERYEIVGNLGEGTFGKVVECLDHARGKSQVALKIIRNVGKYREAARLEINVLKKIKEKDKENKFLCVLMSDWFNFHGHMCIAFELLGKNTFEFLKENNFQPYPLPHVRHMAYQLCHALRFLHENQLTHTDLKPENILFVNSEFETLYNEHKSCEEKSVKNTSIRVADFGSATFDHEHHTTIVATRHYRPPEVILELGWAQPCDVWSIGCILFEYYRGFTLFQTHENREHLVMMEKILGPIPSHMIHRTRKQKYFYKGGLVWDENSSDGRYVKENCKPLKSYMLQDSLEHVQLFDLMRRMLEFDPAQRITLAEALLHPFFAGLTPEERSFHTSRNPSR
Description: CLK3 kinase activity was measured using the LANCE® Ultra technology (PerkinElmer) essentially as recommended by the supplier. Briefly, 2.5 μL of test sample at 4× the desired final concentration in 4% DMSO were dispensed into white, low volume, round bottom, 384 well plates (Corning, cat. no. 4512). 5 μL of a mixture containing recombinant human CLK3 (Thermo Fisher Scientific, cat. no. PV3826) and the labeled peptide substrate ULight™-CREBtide (PerkinElmer, cat. no. TRF0107) prepared in 1.33× kinase buffer (Thermo Fisher Scientific, cat. no. PV3189) were then added. Finally, the reactions were started by adding 2.5 μL of a 4× solution of ATP in kinase buffer. The plates were sealed with adhesive foils and incubated for 3 hours at 30° C. in the dark. The final concentrations of CLK3, ULight™-CREBtide, and ATP were 0.5 nM, 50 nM, and 300 μM, respectively. 5 μL of 40 mM EDTA were then added to terminate the reactions. The Eu-anti-phospho-CREB antibody (PerkinElmer, cat. no. TRF0200) diluted in LANCE® detection buffer (PerkinElmer, cat. no. CR97) was then added to a final concentration of 2 nM and the reactions were incubated for 1 hour at room temperature in the dark. The signals were measured using a Synergy 4 reader (BioTek) with a 320/80 nm filter for the excitation and 620/10 nm and 665/8 nm filters for the donor and acceptor emission, respectively. Relative inhibition values were calculated by normalizing the raw data using solvent control wells (0% inhibition) and wells that received no ATP (100% inhibition). IC50 values were calculated by fitting the concentration-response data to a sigmoidal 4-parameter logistic model. IC50 values for CLK3 are determined from duplicate measurements at ten different concentrations (serial 1:3 dilutions).

[3] = tested on: MDA-MB-231 cells; assay: MDA-MB-231 proliferation assay; format: cell-based; conditions: YO-PRO-1 Iodide readout
Excerpt: as §1, §2

For `CC1(C)Cc2c(ccc(O[C@H]3CC[C@H](N)CC3)c2N2CCC(O)C2)-c2ncnc(N)c21` (single isomer, unassigned) [Example 15, 1-[4-amino-8-(trans-4-aminocyclohexoxy)-5,5-dimethyl-6H-benzo[h]quinazolin-7-yl]pyrrolidin-3-ol], the GI50 ([1]; Homo sapiens, CAL-51, 72 h) was less than 100 nM, the IC50 [2] was less than 30 nM and the GI50 ([3]; Homo sapiens, MDA-MB-231, 72 h) was 100 to 2000 nM.

`CC1(C)Cc2c(ccc(O[C@H]3CC[C@H](N)CC3)c2N2CCC(C#N)C2)-c2ncnc(N)c21` (single isomer, unassigned) [Example 49, 1-[4-amino-8-(trans-4-aminocyclohexoxy)-5,5-dimethyl-6H-benzo[h]quinazolin-7-yl]pyrrolidine-3-carbonitrile] gave a GI50 ([1]; Homo sapiens, CAL-51, 72 h) of less than 100 nM, an IC50 [2] of less than 30 nM and a GI50 ([3]; Homo sapiens, MDA-MB-231, 72 h) of less than 100 nM.

Compound `CC1(C)Cc2c(ccc(O[C@H]3CC[C@H](N)CC3)c2N2CCC(C#N)C2)-c2ncnc(N)c21` (single isomer, unassigned) [Example 50, 1-[4-amino-8-(trans-4-aminocyclohexoxy)-5,5-dimethyl-6H-benzo[h]quinazolin-7-yl]pyrrolidine-3-carbonitrile] has a GI50 ([1]; 72 hours) of less than 100 nM, an IC50 [2] of less than 30 nM and a GI50 ([3]; 72 hours) of less than 100 nM.

For `COC1CCN(c2c(O[C@H]3CC[C@H](N)CC3)ccc3c2CC(C)(C)c2c(N)ncnc2-3)C1` (single isomer, unassigned) [Example 63, 8-(trans-4-aminocyclohexoxy)-7-(3-methoxypyrrolidin-1-yl)-5,5-dimethyl-6H-benzo[h]quinazolin-4-amine], the GI50 ([1]; Homo sapiens, CAL-51, 72 h) was 100 to 2000 nM, the IC50 [2] was 30 to 100 nM and the GI50 ([3]; Homo sapiens, MDA-MB-231, 72 h) was 100 to 2000 nM.

In the case of `COC1CCN(c2c(O[C@H]3CC[C@H](N)CC3)ccc3c2CC(C)(C)c2c(N)ncnc2-3)C1` (single isomer, unassigned) [Example 73, 8-(trans-4-aminocyclohexoxy)-7-(3-methoxypyrrolidin-1-yl)-5,5-dimethyl-6H-benzo[h]quinazolin-4-amine], the GI50 ([1]; 72 hours) is reported as less than 100 nM, the IC50 [2] is reported as 30 to 100 nM and the GI50 ([3]; 72 hours) is reported as less than 100 nM.

`COc1ccc2c(c1C)CC(C)(C)c1c(N)ncnc1-2` [Example 1, 8-methoxy-5,5,7-trimethyl-6H-benzo[h]quinazolin-4-amine] showed a GI50 ([1]; Homo sapiens, CAL-51, 72 h) of 100 to 2000 nM, an IC50 [2] of less than 30 nM and a GI50 ([3]; Homo sapiens, MDA-MB-231, 72 h) greater than 2000 nM.

For `COc1ccc2c(c1N)CC(C)(C)c1c(N)ncnc1-2` [Example 2, 8-methoxy-5,5-dimethyl-6H-benzo[h]quinazoline-4,7-diamine], the GI50 ([1]; Homo sapiens, CAL-51, 72 h) was 100 to 2000 nM, the IC50 [2] was 30 to 100 nM and the GI50 ([3]; Homo sapiens, MDA-MB-231, 72 h) was 100 to 2000 nM.

With `CC1(C)Cc2c(ccc3c2NCCO3)-c2ncnc(N)c21` [Example 3, 6,6-dimethyl-2,3,4,5-tetrahydroquinazolino[7,8-f][1,4]benzoxazin-7-amine] the GI50 ([1]; Homo sapiens, CAL-51, 72 h) was 100 to 2000 nM, the IC50 [2] was 101 to 1000 nM and the GI50 ([3]; Homo sapiens, MDA-MB-231, 72 h) was greater than 2000 nM.

`CN1CCOc2ccc3c(c21)CC(C)(C)c1c(N)ncnc1-3` [Example 4, 4,6,6-trimethyl-3,5-dihydro-2H-quinazolino[7,8-f][1,4]benzoxazin-7-amine] was tested, and the GI50 ([1]; Homo sapiens, CAL-51, 72 h) was 100 to 2000 nM, the IC50 [2] was 30 to 100 nM and the GI50 ([3]; Homo sapiens, MDA-MB-231, 72 h) was 100 to 2000 nM.

`CC1(C)Cc2c(ccc(O[C@H]3CC[C@H](N)CC3)c2N)-c2ncnc(N)c21` [Example 5, 8-(trans-4-aminocyclohexoxy)-5,5-dimethyl-6H-benzo[h]quinazoline-4,7-diamine] showed a GI50 ([1]; Homo sapiens, CAL-51, 72 h) of 100 to 2000 nM, an IC50 [2] of less than 30 nM and a GI50 ([3]; Homo sapiens, MDA-MB-231, 72 h) of 100 to 2000 nM.

`CC(=O)Nc1c(O[C@H]2CC[C@H](N)CC2)ccc2c1CC(C)(C)c1c(N)ncnc1-2` [Example 6, N-[4-amino-8-(trans-4-aminocyclohexoxy)-5,5-dimethyl-6H-benzo[h]quinazolin-7-yl]acetamide] showed a GI50 ([1]; Homo sapiens, CAL-51, 72 h) of 100 to 2000 nM, an IC50 [2] of 101 to 1000 nM and a GI50 ([3]; Homo sapiens, MDA-MB-231, 72 h) greater than 2000 nM.
